Laboratory results taken from patent publication US12414958B2, “Medicament and use thereof for treating bacterial infections involving biofilm” (Debiopharm International S.A., priority 2019, dated 2025).

Test system: ATCC 43300 MRSA strain
Test: In vivo murine model of catheter associated infection, 24 h and 72 h MRSA biofilms
Parameters: species or system Staphylococcus aureus
Conditions: for Log10 CFU/g of catheter (D 6) Mean ± SEM / ΔLog10 CFU/g of catheter from (D 1) Mean ± SEM: 5.5-day treatment (D1-D6); for Log10 CFU/g of catheter (D 6) Mean ± SEM / ΔLog10 CFU/g of catheter from (D 1) Mean ± SEM / Log10 CFU/g of catheter (D 8) Mean ± SEM / ΔLog10 CFU/g of catheter from (D 3) Mean ± SEM: BALB/c mice; for Log10 CFU/g of catheter (D 6) Mean ± SEM / Log10 CFU/g of catheter (D 8) Mean ± SEM: doses as in Table 2; for ΔLog10 CFU/g of catheter from (D 1) Mean ± SEM: change from baseline D 1; for CR (%) cure rate / mean reduction of the initial MRSA load: 5.5-day treatment; for CR (%) cure rate: percentage of mice without catheter-associated bacteria; for Log10 CFU/g of catheter (D 8) Mean ± SEM / ΔLog10 CFU/g of catheter from (D 3) Mean ± SEM: 5.5-day treatment (D3-D8); for ΔLog10 CFU/g of catheter from (D 3) Mean ± SEM: change from baseline D 3; for mean reduction of the initial MRSA load: given as positive reduction
Description: Two experimental settings were used in this study to evaluate the treatment efficacies against early (24h) and/or mature (72h) MRSA catheter formed biofilms. Briefly, mice were anaesthetised by an IP injection of about 120 μl a mix of ketamine (50 mg/kg) and xylazine (10 mg/kg) (4 mL ketamine+2 mL xylazine+10 mL saline). Flank on the right side was shaved and then disinfected by 3 consecutive applications of betadine. A cutaneous and then subcutaneous (SC) incisions of 0.2 cm were made under sterile conditions and a 1 cm segment of polyurethane catheter (Ref. No. ES-04730 Arrow international) cut into 2 longitudinal fragments was inserted SC (into the incision and then pushed further under the skin, about 2 cm away from the incision). The inoculation was done simultaneously by placing 50 μl of the bacterial culture onto the catheter (10^6 CFU of ATCC 43300 MRSA strain). The incision was stitched up and disinfected. The day of the infection was referred to as Day0 (D0). To ensure that the study was conducted in sterile conditions from the start to the end of the experiment, non-infected mice (sentinel group) were included. Treatments started either on D1 or D3 post infection, corresponding to early (24h) or more mature (72h) catheter formed biofilms, respectively, and lasted for 5.5 days (D1-D6) or (D3-D8). In both 24 h and 72h biofilm settings, two groups of infected non-treated animals (Vehicle controls) were evaluated for bacterial counts: at baseline (24h or D1 [for 24-h biofilm] and 72h or D3 [for 72-h biofilm] post infection, i.e. time points corresponding to treatments initiations) and at the termination of treatment duration (D6 [for 24-h biofilm] and D8 [for 72-h biofilm] post infection). Post treatment CFUs were counted on D6 or D8 and results were expressed as Log10 CFU/g of catheter (Mean±SEM). The limit of detection was determined as being 1 Log10 CFU/g of catheter. Changes of CFU/g of catheter (Δ Log10) from the baseline (D1 or D3 for 24-h and 72-h biofilm, respectively) and cure rates (corresponding to the percentage of mice without catheter-associated bacteria within a given treatment group) were also calculated. In vivo induction of antibiotic-resistant bacteria was analysed for all tested antibiotics.
Antibiotics doses were selected according to the effective doses in animals, which approximated the therapeutic human equivalent doses (HED) (Table 1).
Mice received antibiotics on D1, D2, D3, D4, D5 and D6 (only one administration at D6) or D3, D4, D5, D6, D7 and D8 (only one administration at D8). All antibiotics were administered BID IP, except Debio 1450 BES and Vancomycin, which were respectively given PO and SC. Daptomycin was tested as a once daily regimen to avoid tolerability issues. The antibiotics daily dosing was performed with a 10-12 hours interval between the two administrations. For combination therapy, antibiotics were administered simultaneously every 10-12 hours (the time required between the injection of the first antibiotic and the injection of the second antibiotic was less than 30 seconds per mouse).
In each sub-study, animals were randomly assigned to the antibiotic therapies or vehicle controls groups. Dose volumes were calculated according to individual body weight of each animal.
After blood collection, animals were sacrificed by cervical dislocation following anaesthesia. Two fragments of catheter per mouse were collected and were used for bacterial enumeration after sonication. Each fragment of catheter was individually washed under aseptic conditions in an Eppendorf tube (3 successive washing steps with 300 μl sterile saline). After the last wash, the catheter was suspended in 1 mL sterile saline, put in an ultrasonic bath (Advantage Lab) for 3 minutes at room temperature before being vigorously vortexed in order to detach all adherent bacteria from the catheter. Several successive dilutions of this suspension (undiluted, 10-2, […]) were cultured onto Chapman agar plates for 48 h at 37° C. […]

| SMILES | Log10 CFU/g of catheter (D 6) Mean ± SEM (Biofilm (24 h)) | ΔLog10 CFU/g of catheter from (D 1) Mean ± SEM (Biofilm (24 h)) | CR (%) cure rate (Biofilm (24 h)) [%] | Log10 CFU/g of catheter (D 8) Mean ± SEM (Biofilm (72 h)) | ΔLog10 CFU/g of catheter from (D 3) Mean ± SEM (Biofilm (72 h)) | CR (%) cure rate (Biofilm (72 h)) [%] | mean reduction of the initial MRSA load (24 h biofilm) | mean reduction of the initial MRSA load (72 h biofilm) |
| --- | --- | --- | --- | --- | --- | --- | --- | --- |
| CCCCCCCCCC(=O)N[C@@H](Cc1c[nH]c2ccccc12)C(=O)N[C@H](CC(N)=O)C(=O)N[C@@H](CC(=O)O)C(=O)N[C@@H]1C(=O)NCC(=O)N[C@@H](CCCN)C(=O)N[C@@H](CC(=O)O)C(=O)N[C@H](C)C(=O)N[C@@H](CC(=O)O)C(=O)NCC(=O)N[C@H](CO)C(=O)N[C@@H]([C@H](C)CC(=O)O)C(=O)N[C@@H](CC(=O)c2ccccc2N)C(=O)O[C@@H]1C [Daptomycin] | 3.02 ± 0.110 Log10 CFU/g of catheter | −3.64 ± 0.110 Log10 CFU/g of catheter | 25 | 5.42 ± 0.104 Log10 CFU/g of catheter | −1.37 ± 0.104 Log10 CFU/g of catheter | 0 |  |  |
| Cc1c(CN(C)C(=O)/C=C/c2cnc3c(c2)CCC(=O)N3COP(=O)(O)O)oc2ccccc12 [Debio 1450, {6-[(1E)-3-{methyl [(3-methyl-1-benzofuran-2-yl)methyl]amino}-3-oxoprop-1-en-1-yl]-2-oxo-3,4-dihydro-1,8-naphthyridin-1 (2H)-yl} methyl dihydrogen phosphate] | 4.31 ± 0.109 Log10 CFU/g of catheter | −2.35 ± 0.109 Log10 CFU/g of catheter | 8 | 5.75 ± 0.069 Log10 CFU/g of catheter | −1.03 ± 0.069 Log10 CFU/g of catheter | 0 |  |  |
| CO[C@H]1/C=C/O[C@@]2(C)Oc3c(C)c(O)c4c(O)c(c(/C=N/N5CCN(C)CC5)c(O)c4c3C2=O)NC(=O)/C(C)=C\C=C\[C@H](C)[C@H](O)[C@@H](C)[C@@H](O)[C@@H](C)[C@H](OC(C)=O)[C@@H]1C [Rifampicin] | 2.50 ± 0.072 Log10 CFU/g of catheter | −4.17 ± 0.072 Log10 CFU/g of catheter | 39 | 3.80 ± 0.113 Log10 CFU/g of catheter | −2.98 ± 0.113 Log10 CFU/g of catheter | 8 | 4.17±0.072 Log10 CFU/g of catheter | 2.98±0.113 Log10 CFU/g of catheter |
